The text below walks through data of ChEMBL document CHEMBL1153290, “Development of multitargeted inhibitors of both the insulin-like growth factor receptor (IGF-IR) and members of the epidermal growth factor family of receptor tyrosine kinases” (Bioorg Med Chem Lett, 2009).

The source made the active and inactive calls. No cut-off for these calls is given here.

Data set [1] has as its target T1, Insulin-like growth factor 1 receptor (Homo sapiens, UniProt P08069). As to the kind of experiment: Inhibition of IGF1R by time resolved fluorescence assay.
The target in data set [2] is Epidermal growth factor receptor (Homo sapiens, UniProt P00533, L858R).
Data set [3] concerns the target T2, Receptor tyrosine-protein kinase erbB-2 (Homo sapiens, UniProt P04626). Kind of data set: Inhibition of ErbB2 by time resolved fluorescence assay.
Data set [4] concerns the target T2, Receptor tyrosine-protein kinase erbB-2. As to the kind of experiment: Inhibition of ErbB2 phosphorylation in IGF1 and EGF-stimulated human N87 cells pretreated for 6 hrs before IGF1 and EGF stimulation by ELISA. The data set is classed as cell-based, NCI-N87.
Data set [5] deals with Epidermal growth factor receptor (Homo sapiens, UniProt P00533). As to the kind of experiment: Inhibition of EGFR phosphorylation in IGF1 and EGF-stimulated human MiaPaCa2 cells pretreated for 6 hrs before IGF1 and EGF stimulation by ELISA. Format: cell-based.
The target of data set [6] is T1, Insulin-like growth factor 1 receptor. As to the kind of experiment: Inhibition of IGF1R phosphorylation in IGF1 and EGF-stimulated human MiaPaCa2 cells pretreated for 6 hrs before IGF1 and EGF stimulation by ELISA. The data set is classed as cell-based.
For the next data set, the target named is Cytochrome P450 2D6 (Homo sapiens, UniProt P10635). As to the kind of experiment: Inhibition of human CYP2D6. The data set is classed as ADME.
Data set [7] can be described thus: Aqueous solubility at pH 7.2. Format: physicochemical. To be noted: buffer.
The subject of data set [8] is Mus musculus. Kind of data set: Inhibition of IGF1R phosphorylation in IGF1 and EGF-stimulated mouse lung at 50 mg/kg, po pretreated 4 hrs before IGF1 and EGF stimulation. Format: functional, organism-based. Also noted: dose 50 mg/kg.
The test system of data set [9] is Mus musculus. Kind of data set: Dose normalized AUC in ip dosed mouse. The data set is classed as ADME, organism-based. The note with it: in vivo.
Data set [10] is described as follows: Oral bioavailability in mouse. Format: ADME, organism-based. The note with it: in vivo.
A short description of data set [11]: Bioavailability in ip dosed mouse. The data set is classed as ADME, organism-based. The note with it: in vivo.
The test system of data set [12] is Mus musculus. Kind of data set: Inhibition of EGFR phosphorylation in IGF1 and EGF-stimulated mouse liver at 50 mg/kg, po pretreated 4 hrs before IGF1 and EGF stimulation. Format: functional, organism-based. Also noted: dose 50 mg/kg.
Data set [13] in a line: Half life in mouse. The data set is classed as ADME, organism-based. The note with it: in vivo.
A further data set concerns the target Cytochrome P450 3A4 (Homo sapiens, UniProt P08684). Kind of data set: Inhibition of human CYP3A4. The data set is classed as ADME.
In data set [14] the test system is Mus musculus. As to the kind of experiment: Dose normalized AUC in po dosed mouse. The note with it: in vivo. The data set is classed as ADME, organism-based.
For data set [15], the system named is Mus musculus. As to the kind of experiment: Inhibition of IGF1R phosphorylation in IGF1 and EGF-stimulated mouse lung at 50 mg/kg, ip pretreated 4 hrs before IGF1 and EGF stimulation. The data set is classed as functional, organism-based. On the set-up: dose 50 mg/kg.
Data set [16] has as its system Mus musculus. Kind of data set: Dose normalized AUC in iv dosed mouse. To be noted: in vivo. Format: ADME, organism-based.
A short description of data set [17]: Protein binding in human plasma. The data set is classed as ADME, cell-free. The note with it: read-out: PPB (converted).
Data set [18] concerns Mus musculus. As to the kind of experiment: Inhibition of EGFR phosphorylation in IGF1 and EGF-stimulated mouse liver at 50 mg/kg, ip pretreated 4 hrs before IGF1 and EGF stimulation. On the set-up: dose 50 mg/kg. The data set is classed as functional, organism-based.
The next data set addresses Cytochrome P450 2C9 (Homo sapiens, UniProt P11712). Kind of data set: Inhibition of human CYP2C9. The data set is classed as ADME.
Data set [19] is described as follows: Clearance in mouse. Format: ADME, organism-based. To be noted: in vivo.

T2 sequence (P04626 whole entry): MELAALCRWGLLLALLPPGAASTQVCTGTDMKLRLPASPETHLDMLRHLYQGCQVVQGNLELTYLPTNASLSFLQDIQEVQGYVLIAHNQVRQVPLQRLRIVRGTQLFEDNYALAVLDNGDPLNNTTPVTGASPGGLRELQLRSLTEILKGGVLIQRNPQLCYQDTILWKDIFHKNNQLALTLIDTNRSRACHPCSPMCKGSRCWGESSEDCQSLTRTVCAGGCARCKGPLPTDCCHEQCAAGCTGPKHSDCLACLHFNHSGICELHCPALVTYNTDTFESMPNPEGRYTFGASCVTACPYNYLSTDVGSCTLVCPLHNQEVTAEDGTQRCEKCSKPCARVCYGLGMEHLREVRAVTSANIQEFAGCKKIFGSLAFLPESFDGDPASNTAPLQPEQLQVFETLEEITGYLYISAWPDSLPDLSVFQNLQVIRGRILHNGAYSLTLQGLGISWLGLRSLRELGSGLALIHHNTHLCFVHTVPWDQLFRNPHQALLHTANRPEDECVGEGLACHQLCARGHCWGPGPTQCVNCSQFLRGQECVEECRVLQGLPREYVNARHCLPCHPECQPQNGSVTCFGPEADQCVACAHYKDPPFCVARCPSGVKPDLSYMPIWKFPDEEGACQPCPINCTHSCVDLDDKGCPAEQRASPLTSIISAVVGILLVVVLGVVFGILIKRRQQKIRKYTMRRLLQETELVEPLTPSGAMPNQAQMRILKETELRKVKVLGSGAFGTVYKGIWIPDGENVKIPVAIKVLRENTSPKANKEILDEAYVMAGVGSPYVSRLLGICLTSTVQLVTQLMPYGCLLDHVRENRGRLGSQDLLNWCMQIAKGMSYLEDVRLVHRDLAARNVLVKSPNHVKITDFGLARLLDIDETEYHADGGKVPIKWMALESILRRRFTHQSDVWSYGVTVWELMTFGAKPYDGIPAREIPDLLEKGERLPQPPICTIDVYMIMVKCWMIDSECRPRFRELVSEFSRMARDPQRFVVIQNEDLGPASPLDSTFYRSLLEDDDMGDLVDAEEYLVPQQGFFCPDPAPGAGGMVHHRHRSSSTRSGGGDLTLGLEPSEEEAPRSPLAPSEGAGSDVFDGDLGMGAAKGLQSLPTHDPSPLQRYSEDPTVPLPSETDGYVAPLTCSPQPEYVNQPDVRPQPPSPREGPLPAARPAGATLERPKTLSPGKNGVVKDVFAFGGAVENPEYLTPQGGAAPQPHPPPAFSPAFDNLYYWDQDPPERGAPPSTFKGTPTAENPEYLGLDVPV
T1 sequence (P08069 31-736 limits assumed): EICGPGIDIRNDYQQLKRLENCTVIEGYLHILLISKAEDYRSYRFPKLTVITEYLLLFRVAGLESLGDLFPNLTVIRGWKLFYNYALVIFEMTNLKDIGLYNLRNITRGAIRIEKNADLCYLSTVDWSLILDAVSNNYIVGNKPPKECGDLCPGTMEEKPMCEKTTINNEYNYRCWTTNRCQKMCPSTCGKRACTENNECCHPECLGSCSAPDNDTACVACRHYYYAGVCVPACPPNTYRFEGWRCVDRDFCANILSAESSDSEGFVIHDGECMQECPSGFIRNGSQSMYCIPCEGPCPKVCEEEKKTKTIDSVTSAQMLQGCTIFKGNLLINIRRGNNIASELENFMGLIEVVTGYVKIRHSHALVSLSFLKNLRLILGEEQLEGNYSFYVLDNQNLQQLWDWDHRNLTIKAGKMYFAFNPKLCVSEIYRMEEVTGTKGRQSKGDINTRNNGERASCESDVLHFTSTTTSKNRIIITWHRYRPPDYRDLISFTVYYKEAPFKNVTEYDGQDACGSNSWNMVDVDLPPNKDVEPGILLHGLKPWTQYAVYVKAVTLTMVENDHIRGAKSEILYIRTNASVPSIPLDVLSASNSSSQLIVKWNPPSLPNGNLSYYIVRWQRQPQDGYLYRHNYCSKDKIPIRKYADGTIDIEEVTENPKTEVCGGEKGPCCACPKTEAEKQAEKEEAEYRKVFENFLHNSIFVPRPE
T1 sequence (P08069 741-1367 limits assumed): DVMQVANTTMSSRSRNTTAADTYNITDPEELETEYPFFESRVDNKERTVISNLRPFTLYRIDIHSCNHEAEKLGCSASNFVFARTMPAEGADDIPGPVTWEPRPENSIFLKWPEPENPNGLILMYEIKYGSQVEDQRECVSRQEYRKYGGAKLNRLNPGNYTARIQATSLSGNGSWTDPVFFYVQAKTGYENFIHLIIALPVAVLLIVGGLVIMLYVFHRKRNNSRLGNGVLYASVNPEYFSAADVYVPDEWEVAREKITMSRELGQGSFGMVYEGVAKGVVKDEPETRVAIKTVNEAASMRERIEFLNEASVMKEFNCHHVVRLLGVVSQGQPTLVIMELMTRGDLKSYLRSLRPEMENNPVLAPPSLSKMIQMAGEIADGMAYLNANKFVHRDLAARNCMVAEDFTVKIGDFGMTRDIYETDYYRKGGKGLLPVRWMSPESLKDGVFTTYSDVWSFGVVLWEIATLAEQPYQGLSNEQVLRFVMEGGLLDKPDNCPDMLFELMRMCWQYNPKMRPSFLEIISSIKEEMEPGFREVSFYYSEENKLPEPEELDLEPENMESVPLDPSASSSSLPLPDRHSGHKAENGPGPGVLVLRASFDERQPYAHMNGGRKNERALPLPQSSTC
Epidermal growth factor receptor (Homo sapiens, UniProt P00533), sequence (P00533 whole entry): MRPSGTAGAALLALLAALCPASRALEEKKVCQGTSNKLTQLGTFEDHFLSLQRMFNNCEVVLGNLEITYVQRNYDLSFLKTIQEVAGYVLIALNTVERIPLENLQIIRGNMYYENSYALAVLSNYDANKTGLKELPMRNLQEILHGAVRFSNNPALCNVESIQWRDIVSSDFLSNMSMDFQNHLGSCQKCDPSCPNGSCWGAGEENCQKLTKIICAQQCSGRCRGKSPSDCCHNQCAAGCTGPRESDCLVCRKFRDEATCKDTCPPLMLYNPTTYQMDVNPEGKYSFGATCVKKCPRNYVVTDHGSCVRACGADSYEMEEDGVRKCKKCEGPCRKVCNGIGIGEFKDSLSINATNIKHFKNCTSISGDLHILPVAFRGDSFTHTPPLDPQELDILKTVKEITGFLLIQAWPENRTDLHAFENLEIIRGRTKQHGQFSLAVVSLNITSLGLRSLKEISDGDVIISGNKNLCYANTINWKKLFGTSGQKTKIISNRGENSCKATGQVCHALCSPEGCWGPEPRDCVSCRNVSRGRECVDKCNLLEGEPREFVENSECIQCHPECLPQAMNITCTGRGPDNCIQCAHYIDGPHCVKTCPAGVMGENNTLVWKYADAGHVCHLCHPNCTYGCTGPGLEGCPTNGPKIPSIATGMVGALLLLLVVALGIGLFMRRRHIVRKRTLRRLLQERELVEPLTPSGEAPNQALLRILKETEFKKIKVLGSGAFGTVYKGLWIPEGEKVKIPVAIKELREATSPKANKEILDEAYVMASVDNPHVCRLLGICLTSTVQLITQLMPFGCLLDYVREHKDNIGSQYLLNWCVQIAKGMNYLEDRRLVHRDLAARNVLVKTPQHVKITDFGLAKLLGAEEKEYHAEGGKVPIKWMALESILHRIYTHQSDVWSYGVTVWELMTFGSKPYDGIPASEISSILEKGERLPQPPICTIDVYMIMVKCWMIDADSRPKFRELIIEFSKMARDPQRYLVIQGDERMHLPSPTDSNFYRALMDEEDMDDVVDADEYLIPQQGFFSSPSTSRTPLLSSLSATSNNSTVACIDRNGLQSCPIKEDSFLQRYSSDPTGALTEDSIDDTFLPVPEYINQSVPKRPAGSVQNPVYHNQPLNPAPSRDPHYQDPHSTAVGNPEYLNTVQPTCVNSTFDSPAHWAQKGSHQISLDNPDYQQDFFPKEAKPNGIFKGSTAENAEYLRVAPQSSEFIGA
Epidermal growth factor receptor (Homo sapiens, UniProt P00533, L858R), sequence (P00533 25-1210 L858R limits assumed): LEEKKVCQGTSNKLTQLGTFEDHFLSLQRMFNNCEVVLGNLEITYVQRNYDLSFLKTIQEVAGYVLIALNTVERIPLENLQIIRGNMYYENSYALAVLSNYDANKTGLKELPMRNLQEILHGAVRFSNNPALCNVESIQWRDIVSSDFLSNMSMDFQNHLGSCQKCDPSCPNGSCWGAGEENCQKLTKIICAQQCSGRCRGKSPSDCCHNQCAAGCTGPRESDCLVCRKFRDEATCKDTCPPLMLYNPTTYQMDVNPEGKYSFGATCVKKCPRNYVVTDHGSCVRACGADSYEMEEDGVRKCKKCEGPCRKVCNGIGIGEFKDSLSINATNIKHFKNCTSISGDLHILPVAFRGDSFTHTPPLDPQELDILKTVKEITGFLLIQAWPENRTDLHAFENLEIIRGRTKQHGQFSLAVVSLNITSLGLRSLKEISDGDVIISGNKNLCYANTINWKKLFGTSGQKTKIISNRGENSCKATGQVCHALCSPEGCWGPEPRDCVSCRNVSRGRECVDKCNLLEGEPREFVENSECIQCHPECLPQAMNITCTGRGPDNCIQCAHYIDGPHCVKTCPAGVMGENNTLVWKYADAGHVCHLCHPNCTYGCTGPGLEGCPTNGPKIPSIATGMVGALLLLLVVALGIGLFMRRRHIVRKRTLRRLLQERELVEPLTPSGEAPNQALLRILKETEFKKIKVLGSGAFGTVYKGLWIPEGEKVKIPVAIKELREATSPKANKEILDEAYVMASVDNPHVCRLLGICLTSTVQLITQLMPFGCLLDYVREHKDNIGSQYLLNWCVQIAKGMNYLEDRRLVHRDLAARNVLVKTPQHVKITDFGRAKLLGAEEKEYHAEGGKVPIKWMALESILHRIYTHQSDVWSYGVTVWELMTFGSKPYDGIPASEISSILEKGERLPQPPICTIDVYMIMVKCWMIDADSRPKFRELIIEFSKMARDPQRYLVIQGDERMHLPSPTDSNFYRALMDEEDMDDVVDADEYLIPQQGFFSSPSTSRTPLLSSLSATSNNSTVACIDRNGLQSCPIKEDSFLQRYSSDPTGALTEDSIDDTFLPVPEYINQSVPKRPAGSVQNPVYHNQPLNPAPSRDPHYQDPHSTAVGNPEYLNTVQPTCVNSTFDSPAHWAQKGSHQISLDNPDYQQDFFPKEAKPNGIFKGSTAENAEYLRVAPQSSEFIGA

As to `Nc1ncnc2c1c(-c1ccc3nc(Cc4ccccc4Cl)[nH]c3c1)nn2[C@H]1CC[C@H](N2CCOCC2)CC1`, the IC50 in [1] worked out at 0.036 µM; in data set [2] it was 0.065 µM; in [3], 0.664 µM.

On to `COc1ccccc1Cc1nc2ccc(-c3nn([C@H]4CC[C@H](N5CCN(C(=O)N(C)C)CC5)CC4)c4ncnc(N)c34)cc2[nH]1`, for which the 50% inhibitory concentration (IC50) stood at 0.069 µM in [1], 0.025 µM in data set [2] and 0.017 µM in [3]. Besides, the EC50 came out at 1.58 µM in [4], 0.808 µM in [5] and 0.208 µM in data set [6].

`Nc1ncnc2c1c(-c1ccc3nc(Cc4cccs4)[nH]c3c1)nn2[C@H]1CC[C@H](N2CCOCC2)CC1`: the IC50 in data set [1] came out at 0.025 µM; in [2], 0.361 µM; in [3] it was 0.25 µM.

In the case of `COc1ccccc1Cc1nc2ccc(-c3nn([C@H]4CC[C@H](N5CCOCC5)CC4)c4ncnc(N)c34)cc2[nH]1`, the IC50 in data set [3] was found to be 0.053 µM.

In the case of `COc1ccccc1Cc1nc2ccc(-c3nn([C@H]4CC[C@H](N5CCNCC5)CC4)c4ncnc(N)c34)cc2[nH]1`, the IC50 in data set [1] was 0.026 µM; in data set [2], 0.03 µM; in [3] it was 0.044 µM. Also, the results for the EC50 in [4], in data set [5] and in data set [6] were 0.21 µM, 0.335 µM and 0.711 µM, respectively.

`COc1ccccc1Cc1nc2ccc(-c3nn([C@H]4CC[C@H](N5CCN(CC6CC6)CC5)CC4)c4ncnc(N)c34)cc2[nH]1`: the IC50 in [1] is 0.04 µM; in data set [2], 0.003 µM; in data set [3] it was 0.013 µM. Moreover, the EC50 in [4] stood at 0.147 µM; in data set [5], 0.091 µM; in data set [6], 0.19 µM.

As for `CCOC(=O)N1CCN([C@H]2CC[C@H](n3nc(-c4ccc5nc(Cc6ccccc6OC)[nH]c5c4)c4c(N)ncnc43)CC2)CC1`, the IC50 was 0.309 µM in data set [1], 0.03 µM in [2] and 0.27 µM in data set [3]. Moreover, the concentration giving a half-maximal response (EC50) turned out to be 1.6 µM in [4], 0.52 µM in data set [5] and 0.247 µM in data set [6].

With `COc1ccccc1Cc1nc2ccc(-c3nn([C@H]4CC[C@H](N5CCN(C(C)=O)CC5)CC4)c4ncnc(N)c34)cc2[nH]1`, the IC50 in data set [1] was 0.027 µM; in [2], 0.13 µM; in data set [3] it was 0.059 µM. In addition, the values for the EC50 in [4], in data set [5] and in data set [6] were 0.66 µM, 0.742 µM and 0.143 µM, respectively.

On to `COCCCN1CCN([C@H]2CC[C@H](n3nc(-c4ccc5nc(Cc6ccccc6OC)[nH]c5c4)c4c(N)ncnc43)CC2)CC1`, for which the IC50 was 1.6 µM on Cytochrome P450 2D6; 0.081 µM in data set [1]; 0.058 µM in [2]; 0.054 µM in [3]; greater than 20 µM on Cytochrome P450 3A4; greater than 20 µM at Cytochrome P450 2C9. For the same compound, in data set [7], the solubility was greater than 30 µM. Moreover, the inhibition result in the data set on Mus musculus [8], in the data set with Mus musculus [12], in the data set on Mus musculus [15] and in the data set with Mus musculus [18] was “Active” in each case. Besides, the AUC in the data set on Mus musculus [9] turned out to be 2.71 µmol·h/L/mg/kg; in the data set on Mus musculus [14], 0.42 µmol·h/L/mg/kg; in the data set with Mus musculus [16], 3.5 µmol·h/L/mg/kg. Moreover, the results for the bioavailability in data set [10] and in data set [11] were 12% and 100%, respectively. The EC50 turned out to be 0.094 µM in data set [4], 0.085 µM in [5] and 0.115 µM in data set [6]. Further, in data set [13], the half-life is 3.1 h. For the same compound, the fraction unbound in [17] was 0.033. The compound also gave a clearance in [19] of 0.47 L/h/kg.

On to `Nc1ncnc2c1c(-c1ccc3nc(Cc4ccccc4)[nH]c3c1)nn2[C@H]1CC[C@H](N2CCOCC2)CC1`, for which the IC50 in data set [2] was found to be 0.27 µM; in [3], 0.186 µM.
